pKi: −log10 of the molar value.
target: HPK1 (Homo sapiens, UniProt Q92918); test: HPK1 Kinase Binding Assay; settings: LanthaScreen tracer 222 binding, one hour incubation at 25° C.
Description: Example A. HPK1 Kinase Binding Assay
A stock solution of 1 mM test compound was prepared in DMSO. The compound plate was prepared by 3-fold and 11-point serial dilutions. 0.1 μL of the compound in DMSO was transferred from the compound plate to the white 384 well polystyrene plates. The assay buffer contained 50 mM HEPES, pH 7.5, 0.01% Tween-20, 5 mM MgCl2, 0.01% BSA, and 5 mM DTT. 5 μl of 4 nM active HPK1 (SignalChem M23-11G) prepared in the buffer was added to the plate. The enzyme concentration given was based on the given stock concentration reported by the vender. 5 μl of 18 nM tracer 222 (ThermoFisher PV6121) and 4 nM LanthaScreen Eu-Anti GST antibody (ThermoFisher PV5595) were added. After one hour incubation at 25° C., the plates were read on a PHERAstar FS plate reader (BMG Labtech). Ki values were determined.

Sequence of HPK1 (Q92918 whole entry, looked up): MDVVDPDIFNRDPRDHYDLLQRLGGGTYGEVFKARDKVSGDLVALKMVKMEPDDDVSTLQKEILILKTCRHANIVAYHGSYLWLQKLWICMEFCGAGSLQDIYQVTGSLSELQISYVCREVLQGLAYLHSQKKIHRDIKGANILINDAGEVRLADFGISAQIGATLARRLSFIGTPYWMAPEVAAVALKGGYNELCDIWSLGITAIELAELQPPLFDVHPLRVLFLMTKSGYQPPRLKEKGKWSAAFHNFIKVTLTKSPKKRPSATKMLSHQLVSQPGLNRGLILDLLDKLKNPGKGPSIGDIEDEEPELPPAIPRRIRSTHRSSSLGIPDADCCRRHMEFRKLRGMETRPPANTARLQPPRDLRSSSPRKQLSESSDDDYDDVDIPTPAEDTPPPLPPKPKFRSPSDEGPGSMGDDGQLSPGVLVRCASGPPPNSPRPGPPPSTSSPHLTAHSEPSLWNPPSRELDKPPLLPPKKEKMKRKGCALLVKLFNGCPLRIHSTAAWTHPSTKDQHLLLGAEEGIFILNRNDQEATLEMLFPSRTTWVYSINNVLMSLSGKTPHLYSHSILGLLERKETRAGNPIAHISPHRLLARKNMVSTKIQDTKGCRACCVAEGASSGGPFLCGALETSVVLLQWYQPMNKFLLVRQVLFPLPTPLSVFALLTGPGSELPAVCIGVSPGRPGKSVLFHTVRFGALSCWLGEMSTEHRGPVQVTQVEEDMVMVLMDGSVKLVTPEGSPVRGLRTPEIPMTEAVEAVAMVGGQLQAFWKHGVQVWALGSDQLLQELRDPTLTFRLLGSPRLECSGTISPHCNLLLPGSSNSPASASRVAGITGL

pKi, ≥ 7.00:
CNCc1cc(C)c(-c2nc3c(-c4cnc(N5CCOCC5)nc4)n[nH]c3cc2C#N)c(F)c1 [Example 70, 5-(2-Fluoro-6-methyl-4-((methylamino)methyl)phenyl)-3-(2-morpholinopyrimidin-5-yl)-1H-pyrazolo[4,3-b]pyridine-6-carbonitrile]
CN1CCN(c2ccc(-c3n[nH]c4ccc(-c5cccc(C(N)=O)c5F)nc34)cc2)CC1 [Example 40, 2-Fluoro-3-(3-(4-(4-methylpiperazin-1-yl)phenyl)-1H-pyrazolo[4,3-b]pyridin-5-yl)benzamide]
CNC(=O)c1ccc(-c2n[nH]c3cc(C#N)c(-c4c(C)cccc4F)nc23)cn1 [Example 65, 5-(6-Cyano-5-(2-fluoro-6-methylphenyl)-1H-pyrazolo[4,3-b]pyridin-3-yl)-N-methylpicolinamide]
CN1CCN(c2ccc(-c3n[nH]c4ccc(-c5cnc6c(c5)CC(=O)N6)nc34)cc2)CC1 [Example 27, 5-(3-(4-(4-Methylpiperazin-1-yl)phenyl)-1H-pyrazolo[4,3-b]pyridin-5-yl)-1H-pyrrolo[2,3-b]pyridin-2(3H)-one]
Cc1cccc(F)c1-c1nc2c(-c3cnc(N4CCOCC4)nc3)n[nH]c2cc1C#N [Example 63, 5-(2-Fluoro-6-methylphenyl)-3-(2-morpholinopyrimidin-5-yl)-1H-pyrazolo[4,3-b]pyridine-6-carbonitrile]
CNC1CCc2c(-c3ccc4[nH]nc(-c5ccc(N6CCN(C)CC6)cc5)c4n3)cccc21 (stereo not shown) [Example 48, N-Methyl-4-(3-(4-(4-methylpiperazin-1-yl)phenyl)-1H-pyrazolo[4,3-b]pyridin-5-yl)-2,3-dihydro-1H-inden-1-amine]
COc1ccc(F)c(F)c1-c1ccc2[nH]nc(-c3ccc(N4CCN(C)CC4)cc3)c2n1 [Example 10, 5-(2,3-Difluoro-6-methoxyphenyl)-3-(4-(4-methylpiperazin-1-yl)phenyl)-1H-pyrazolo[4,3-b]pyridine]
CCN1CCN(c2ccc(-c3n[nH]c4cc(C#N)c(-c5c(C)cccc5F)nc34)cc2)CC1 [Example 64]
CN1CCN(c2ccc(-c3n[nH]c4ccc(-c5cccc6[nH]ncc56)nc34)cc2)CC1 [Example 23, 5-(1H-Indazol-4-yl)-3-(4-(4-methylpiperazin-1-yl)phenyl)-1H-pyrazolo[4,3-b]pyridine]
Cc1c(N)cccc1-c1ccc2[nH]nc(-c3ccc(N4CCN(C)CC4)cc3)c2n1 [Example 6, 2-Methyl-3-(3-(4-(4-methylpiperazin-1-yl)phenyl)-1H-pyrazolo[4,3-b]pyridin-5-yl)aniline]
CN1CCN(c2ccc(-c3n[nH]c4cc(C#N)c(-c5c(F)ccc6c5CCNC6)nc34)cn2)CC1 [Example 76]
CCN1CCN(c2ccc(-c3n[nH]c4cc(C#N)c(-c5c(C)cc(CNC)cc5F)nc34)cc2)CC1 [Example 69, 3-(4-(4-Ethylpiperazin-1-yl)phenyl)-5-(2-fluoro-6-methyl-4-((methylamino)methyl)phenyl)-1H-pyrazolo[4,3-b]pyridine-6-carbonitrile]
CN1CCN(c2ccc(-c3n[nH]c4ccc(-c5cccnc5)nc34)cc2)CC1 [Example 24, 3-(4-(4-Methylpiperazin-1-yl)phenyl)-5-(pyridin-3-yl)-1H-pyrazolo[4,3-b]pyridine]

From patent publication US11242343B2 (Incyte Corporation, priority 2016, dated 2022)
